Assay results taken from US20070149562A1, “OXOPIPERIDINE DERIVATIVES, PREPARATION AND THERAPEUTIC USE THEREOF” (SANOFI-AVENTIS, priority 2004, published 2007).
Structures can show the parent of a compound that is named as a salt.

Tests used:
human MC4 receptor [1] = target: T1, human MC4 receptor (Homo sapiens, UniProt P32245); assay: Functional assay of agonist activity: cAMP formation; format: cell-based; conditions: CHO-K1 cells expressing human MC4 receptor, 1 hour incubation, read-out: EC50 with respect to the MC4 receptor
T1 construct: host or cells: CHO-K1
Description: (§1) A functional assay is used to differentiate between the agonist activity and the antagonist activity. For this, the formation of cyclic adenosine monophosphate (cAMP) generated by activation of the MC3 receptor or of the MC4 receptor is assayed.
CHO-K1 cells, expressing the human MC4 receptor at a moderate density (Euroscreen), are seeded into DMEM/Nutrient Mix F12 culture medium (Gibco/BR1) containing 10% of foetal calf serum, 0.5% sodium pyruvate, 1% L-glutamine, 1% non-essential amino acids, 200 mg/l hygromycin B and 0.5% PenStrep, these products being provided by Gibco/BR1, except the calf serum (Biowhittaker) and hygromycin B (Sigma).
(§2) The compounds to be tested (diluted in 10% DMSO), in an amount of 10 ul at a concentration of 10 times the final concentration, are added to the plates of cells (final volume=100 ul/well). After incubation for 1 hour (37° C., 5% CO2), the amount of cAMP is assayed using Tropix kits (Appelera) according to the supplier's documentation. The intrinsic activity of the compounds is calculated by comparing the stimulation of cAMP by these compounds to the stimulation induced by 30 nM of NDP MSH (maximum of 100%). The EC50 value for the compounds corresponds to the concentration which produces 50% of the maximum stimulation obtained with this compound.

human MC3 receptor = target: T2, human MC3 receptor (Homo sapiens, UniProt P41968); assay: as above; format: cell-based; conditions: CHO(dhfr-) cells expressing human MC3 receptor, 1 hour incubation, read-out: EC50 with respect to the MC3 receptor
T2 construct: expressed in transfected cells; host or cells: CHO(dhfr-)
Description: as §1
CHO(dhfr-) cells expressing the human MC3 receptor are seeded into MEM Eagle culture medium (Sigma) containing 10% of dialysed calf serum, 1% L-glutamine, 1% sodium pyruvate, 20 mg/500 ml L-proline, 0.3 mg/ml Geneticin and 0.5% PenStrep, these products being provided by Gibco/BR1, except for the dialysed calf serum (Cambrex) and the L-proline (Sigma).
as §2

human MC4 receptor [2] = target: T1, human MC4 receptor; assay: Affinity assay: displacement of [125I]-[Nle4-D-Phe7]-α-MSH binding to cell membranes (SPA); conditions: membranes of CHO-K1 cells expressing human MC4 receptor; radioligand 100 pM; read-out: IC50 with respect to the MC4 receptor
Description: This affinity assay is carried out by measuring the binding of [^125I]-[Nle^4-D-Phe^7]-[…]-MSH to cell membranes. The displacement of this radioligand is used to identify inhibitors of the specific binding to recombinant melanocortin receptors.
For this assay, membranes prepared from CHO-K1 cells expressing the human MC4 receptor at high density (Euroscreen) or membranes, that were purchased (Perkin Elmer Life Sciences, Receptor Biology), of HEK-293 cells expressing hMC3 receptors were used. CHO-K1 cells transfected with the hMC4 receptor gene (Euroscreen) are seeded into DMEM/Nutrient Mix F12 culture medium containing 10% foetal calf serum (Biowhittaker), 1% sodium pyruvate, 1% L-glutamine, 1% non-essential amino acids, 0.4 mg/ml geneticin (G418) and 0.5% PenStrep, these products being provided by Gibco/BR1, except the calf serum. At 80% confluency, the cells are scraped off and the cell pellets are frozen at −80° C.
A tube of cells (approximately 70×10^6 cells) is thawed on ice and resuspended in 10 ml of binding buffer [25 mM HEPES, pH 7.0, 1 mM MgCl2, 1.5 mM CaCl2, 100 mM NaCl, 1 mM 1,10-phenanthroline and 1 tablet of Complete™ (protease inhibitor from Roche) in 50 ml of buffer]using a polytron for 20 seconds. The suspension is centrifuged for 20 min at 19 500 rpm at 4° C. The supernatant is discarded and the pellet is resuspended in 5 ml of binding buffer. The amount of proteins present in the sample is assayed using a Bradford test, and the concentration is adjusted to 3 ug/25 ul by dilution in binding buffer.
[^125I]-[Nle^4, D-Phe^7]-[…]-MSH is diluted in binding buffer+0.2% BSA. SPA beads (wheatgerm agglutinin polyvinyltoluene, Amersham Pharmacia Biotech) are hydrated in the binding buffer+0.2% BSA and are then mixed with the cell homogenate so as to obtain 3 μg of cell proteins and 250 ug of beads in 50 ul. […] The nonspecific binding is defined by NDP-DMSH at 10^-7 M. The total binding is measured by the number of counts per minute in the presence of the radioligand alone. […]

T2 sequence (P41968 whole entry): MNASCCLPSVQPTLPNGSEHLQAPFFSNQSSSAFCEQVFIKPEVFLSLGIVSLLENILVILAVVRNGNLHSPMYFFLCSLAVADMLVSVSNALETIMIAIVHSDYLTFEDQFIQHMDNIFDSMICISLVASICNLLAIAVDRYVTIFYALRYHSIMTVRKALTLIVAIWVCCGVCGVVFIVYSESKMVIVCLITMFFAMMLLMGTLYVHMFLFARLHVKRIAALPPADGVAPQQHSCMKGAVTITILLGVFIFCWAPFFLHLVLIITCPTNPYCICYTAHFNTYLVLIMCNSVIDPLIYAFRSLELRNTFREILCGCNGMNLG
T1 sequence (P32245 whole entry): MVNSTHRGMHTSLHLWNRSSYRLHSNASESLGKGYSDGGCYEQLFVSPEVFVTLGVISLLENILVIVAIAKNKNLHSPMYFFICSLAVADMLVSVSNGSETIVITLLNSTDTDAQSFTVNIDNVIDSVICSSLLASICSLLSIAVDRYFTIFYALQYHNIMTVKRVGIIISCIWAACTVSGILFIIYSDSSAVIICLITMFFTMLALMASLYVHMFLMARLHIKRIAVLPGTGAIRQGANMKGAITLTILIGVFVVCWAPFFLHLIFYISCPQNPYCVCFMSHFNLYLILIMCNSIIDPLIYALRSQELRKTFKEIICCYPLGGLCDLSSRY

SMILES	melting point [°C]	EC50 (human MC4 receptor [1]) [nM]	EC50 (human MC3 receptor) [nM]	IC50 (human MC4 receptor [2]) [nM]
O=C([C@@H](Cc1ccc(Cl)cc1)NC1CCNCC1)N1CCC(Cn2cncn2)(C2CCCCC2)CC1 (as salt: HCl) [Compound 1, N-{(1R)-1-(4-chlorobenzyl)-2-[4-cyclohexyl-4-(1H-1,2,4-triazol-1-ylmethyl)piperidin-1-yl]-2-oxoethyl}piperidin-4-amine]	255	–	–	–
N[C@H]1CC[C@@H](N[C@H](Cc2ccc(Cl)cc2)C(=O)N2CCC(Cn3cncn3)(C3CCCCC3)CC2)CC1 (as salt: HCl) [Compound 12, cis-N-{(1R)-1-(4-chlorobenzyl)-2-[4-cyclohexyl-4-(1H-1,2,4-triazol-1-ylmethyl)piperidin-1-yl]-2-oxoethyl}cyclohexane-1,4-diamine]	159	–	–	–
CS(=O)(=O)N1CCC(N[C@H](Cc2ccc(Cl)cc2)C(=O)N2CCC(Cn3cncn3)(C3CCCCC3)CC2)CC1 (as salt: HCl) [Compound 54, N-{(1R)-1-(4-chlorobenzyl)-2-[4-cyclo-hexyl-4-(1H-1,2,4-triazol-1-ylmethyl)piperidin-1-yl]-2-oxoethyl}-1-(methylsulphonyl)piperidin-4-amine]	> 200	–	–	–
NCC(=O)N[C@H]1CC[C@@H](N[C@H](Cc2ccc(Cl)cc2)C(=O)N2CCC(Cn3cncn3)(C3CCCCC3)CC2)CC1 (as salt: HCl) [Compound 116, N-[cis-4-({(1R)-1-(4-chlorobenzyl)-2-[4-cyclohexyl-4-(1H-1,2,4-triazol-1-ylmethyl)piperidin-1-yl]-2-oxoethyl}amino)cyclohexyl]glycinamide]	128	–	–	–
O=C([C@@H](Cc1ccc(Cl)cc1)NC1CCNCC1)N1CCC(Cn2cncn2)(C2CCCCC2)CC1 [Compound 1, N-{(1R)-1-(4-chlorobenzyl)-2-[4-cyclohexyl-4-(1H-1,2,4-triazol-1-ylmethyl)piperidin-1-yl]-2-oxoethyl}piperidin-4-amine]	–	50	200	250
O=C([C@@H](Cc1ccc(Cl)cc1)NC1CCOCC1)N1CCC(Cn2cncn2)(C2CCCCC2)CC1 [Compound 2, N-{(1R)-1-(4-chlorobenzyl)-2-[4-cyclohexyl-4-(1H-1,2,4-triazol-1-ylmethyl)piperidin-1-yl]-2-oxoethyl}tetrahydro-2H-pyran-4-amine]	75	60	110	570
N[C@H]1CC[C@@H](N[C@H](Cc2ccc(Cl)cc2)C(=O)N2CCC(Cn3cncn3)(C3CCCCC3)CC2)CC1 [Compound 12, cis-N-{(1R)-1-(4-chlorobenzyl)-2-[4-cyclohexyl-4-(1H-1,2,4-triazol-1-ylmethyl)piperidin-1-yl]-2-oxoethyl}cyclohexane-1,4-diamine]	–	20	100	200
